The assay relates to Mycobacterium tuberculosis. The assay is described as follows: Antimycobacterial activity against Mycobacterium bovis BCG measured after 7 days. It is filed as functional, organism-based. As to conditions: variant bovis BCG, 168 h.

The structures appear in SMILES notation. Residues, ends and D or L forms follow the SMILES beside them.

A word on the IC50: it is the concentration needed to halve the response being measured. High values mean weaker potency in that assay, low ones greater potency in that assay.

In turn, `CC[C@@H](C)[C@@H]1NC(=O)[C@@H](CC(C)C)NC(=O)[C@H](CC(C)C)NC(=O)[C@H](Cc2c[nH]c3ccccc23)NC(=O)[C@@H](CCCN)NC(=O)[C@H](CC(N)=O)NC1=O` displayed an IC50 of 2800 nM.

Turning to `CC(C)C[C@@H]1NC(=O)[C@H](Cc2c[nH]c3ccccc23)NC(=O)[C@@H](CCCN)NC(=O)[C@H](CC(N)=O)NC(=O)[C@H](C(C)C)NC(=O)[C@@H](CC(C)C)NC1=O` (HELM PEPTIDE1{[NCCC[C@@H](N[*:1])C(=O)[*:2]].W.L.[dL].V.N}$PEPTIDE1,PEPTIDE1,1:R1-6:R2$$$V2.0), half-maximal inhibition (IC50) required 3100 nM.

The values are drawn from ChEMBL document CHEMBL4229459, “An efficient synthetic route for preparation of antimycobacterial wollamides and evaluation of their in vitro and in vivo efficacy” (Bioorg Med Chem Lett, 2018).
